Consider one substance from publication PMC8556085, “Antimicrobial and Antioxidant Secondary Metabolites from Trifolium baccarinii Chiov. (Fabaceae) and Their Mechanisms of Antibacterial Action” (BioMed Research International, 2021).

Marks after values point to notes of the source that are not given here.

A short description of assay [1]: Gallic acid equivalent antioxidant capacity (GEAC) assay. The settings on record: ABTS radical, 420 nm, 240 s; mean ± SD. In short, it runs like this: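 Purified Sclerotinia sclerotiorum laccase oxidises ABTS in acetate buffer pH 5.0 (100 mM); ABTS●+ read at 420 nm after 240 s. Samples at 10–800 μg/mL (extracts) or 12.5–200 μg/mL (isolated compounds) in assay. Values expressed as gallic acid equivalents from a 0–84 μM gallic acid calibration curve; triplicates, three repeats.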

In assay [2] the test system is superoxide dismutase (SOD). As to the kind of experiment: Superoxide dismutase (SOD) activity in treated bacterial cell lysates. It is filed as cell-based. As to conditions: Staphylococcus aureus ATCC25923 and MRSA03, MIC and 1/2xMIC, 24 h. Here is the method:
(§1) (3) Antioxidant Enzyme Activities. For evaluation of catalase and superoxide dismutase (SOD) activities, Staphylococcus aureus ATCC25923 and MRSA03 (1.5 × 10^8 CFU/mL, 500 μL) cultures from the late exponential growth phase were treated with MIC and 1/2xMIC of the methanol extract (500 μL), compound 5 (500 μL), and oxacillin (500 μL) solutions and incubated at 37°C for 24 h. The suspension was centrifuged at 3000 rpm for 5 min to separate the supernatant. The pellet was washed twice with PBS and resuspended in 500 μL of cell lysate buffer (1 mM EDTA, 10 Mm Tris-HCl, 0.1% Triton-X-100, and 150 mM NaCl) and incubated at 37°C for 1 h. Contents were then centrifuged at 3000 rpm for 5 min, and the supernatant was collected for enzyme activity assays.
Superoxide dismutase (SOD) activity. This was determined using a kit (Sigma, catalogue no. 19160) in the cell lysate. […] The reaction mixture was incubated in the dark at 37°C for 20 min, and the absorbance was read at 450 nm on a BioTek Synergy 2 multiplate reader. The SOD activity was calculated based on the following formula: [(ABlank1–ABlank3) − (ASample–ABlank2)/(ABlank1–ABlank3) × 100], where Blank 1 contains ultrapure water, WST solution, and enzyme solution, Blank 2 contains sample solution, WST solution, and dilution buffer, and Blank 3 contains ultrapure water, WST solution, and dilution buffer.

The subject of another assay is catalase. As to the kind of experiment: Catalase activity in treated bacterial cell lysates. The settings on record: Staphylococcus aureus ATCC25923 and MRSA03, MIC and 1/2xMIC, 24 h. It is filed as cell-based. Here is the method: as §1
Catalase activity. This was assessed by using a kit (Sigma, catalogue no. CAT100) with a cell lysate. Briefly, 750 μL of assay buffer (50 mM) was mixed with 25 μL of 50 mM H2O2 and 10 μL of cell lysate. […] The absorbance was monitored at 520 nm, and the catalase activity was calculated based on the following equation: [Δμ moles (H2O2) × d × 100)/V × t], where Δμ moles (H2O2) is the difference in amount of H2O2 added to the reaction mixture between blank and given samples, d is the dilution of the original sample for catalase reaction, V is the sample volume in catalase reaction, and t is the reaction duration (min).

The subject of assay [3] is tested bacteria and yeasts. As to the kind of experiment: Broth microdilution MIC/MMC, summary over all strains. It is filed as cell-based. As to conditions: against specific microorganism; cutoff points of ref 33. In short, it runs like this: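 Twofold broth microdilution in MHB (bacteria) or SDB (yeasts), final range 2048–0.125 μg/mL. Inocula were 1 × 10^6 CFU/mL for bacteria, incubated at 37 °C for 24 h with shaking, and 1 × 10^5 spores/mL for yeasts (C. albicans 30 °C 48 h; C. neoformans 30 °C 72 h). MIC was the lowest concentration with no visible growth, in triplicate.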

On to “4,7,2′-trihydroxy-4′-methoxyisoflavanol [compound 5]”, for which the “Gallic acid equivalent antioxidant capacity (GEAC)” value in assay [1] is recorded as 61.05 ± 0.90^h μg/mL. For the same substance, the “SOD activity vs untreated cell lysates” value in assay [2] is listed as “significant concentration-dependent decreases”. Besides, the “catalase activity vs untreated cell lysates” value in the assay on catalase is “significant concentration-dependent decreases”. Besides, the “antimicrobial activity class of pure compounds by cutoff points” value in assay [3] is given as “significant/moderate”.
